The record followed here is US20120035244A1, “PARP1 TARGETED THERAPY” (THE REGENTS OF THE UNIVERSITY OF MICHIGAN, priority 2010, published 2012).

Data set [1] has as its system MDA-MB-231 (BRCA1/2 WT). The data set can be described thus: CAM xenograft tumors, MDA-MB-231. It is filed as in vivo, chicken embryo. The following applies: Olaparib treatment. The procedure:
(§1) The CAM assay was performed as described previously (Zijlstra, A., et al., Cancer research 62, 7083-7092 (2002)). Briefly, fertilized eggs were incubated in a rotary humidified incubator at 38° C. with for 10 days. After releasing the CAM by applying mild amount of low pressure to the hole over the air sac and cutting a square 1-cm^2 window encompassing a second hole near the allantoic vein, cultured human cells that had been pre-treated with siRNA as indicated were detached by trypsinization and re-suspended in complete medium prior to implantation of 2×10^6 cells adjacent to the mesenchyme in each egg. The windows were subsequently, sealed and the eggs were returned to a stationary incubator. Cells were then treated as indicated with 40 mg/kg body weight Olaparib which was administered on day 13, 15 and 17. Day 18 embryos were sacrificed. Tumors were then excised and weighed. […] After incubation of either the metastasis or intravasation assays, the extra-embryonic tumor and CAM, as well as the embryonic liver were harvested and analyzed for the presence of tumor cells by quantitative human alu-specific PCR. […] Quantification of human cells in the extracted DNA was done as described^14. Fluorogenic TaqMan qPCR probes were applied as above, and DNA copy numbers were quantified.

The subject of data set [2] is DU145 cells. Briefly: Colony formation after radiation, isogenic DU145 model overexpressing T2:ERG. It is filed as cell-based. The following applies: DU145, pre-treated with 10 μM Olaparib. The method, then: (§2) The effect of ETS overexpression on radioresistance was assayed. Isogenic PC3 or DU145 models overexpressing either T2:ERG or ERG with a deleted ETS domain were pre-treated with or without 10 μM Olaparib and then treated with different doses of radiation as indicated. Colony formation was assessed. Experiments were also performed in which cells were pre-treated with either PARP1 or control siRNA prior to radiation. Western blot analysis was used to assess PARP knockdown efficiency in the inset. Total Poly(ADP-ribose) (or PAR) levels were assessed by Western blot analysis from total cell lysates. All experiments were run in triplicate. Error bars are standard error of the mean.

The test system of data set [3] is LNCaP. Briefly: CAM xenograft tumor weight, LNCaP. It is filed as in vivo, chicken embryo. Conditions: extended Olaparib treatment, P<0.01. The procedure:
as §1

The subject of data set [4] is PC3-LACZ xenografts. Briefly: PC3-LACZ mouse xenograft model. Format: in vivo, mice. The following applies: PC3-LACZ (ETS negative). The text has this: (§3) Olaparib was obtained from Axon Medchem (Groningen, The Netherlands).
The test system of data set [5] is VCaP xenografts. The data set can be described thus: VCaP mouse xenograft model. It is filed as in vivo, mice.
Text: as §3

The nature of data set [6]: Body weight of xenografted mice. It is filed as in vivo. The following applies: xenograft and primagraft models, Olaparib treatment. The procedure:
as §3
(§4) Human prostate cancer specimens MDA-PCa 2b-T (ETV1 positive), MDA-PCa-133 (ERG positive) and MDA PCa 118b (ETS-negative) were obtained (Li, Z. G., et al. The Journal of clinical investigation 118, 2697-2710 (2008)). Each xenografted tumor tissue was aseptically harvested from the host mice. New recipient mice were anesthetized by injecting […] intraperitoneally for chemical restraint before tumor implantation. About 0.5 cm^3 size of the excised tumor tissue was directly implanted into subcutaneous pockets of 6- to 8-week-old male CB17 SCID mice (Charles River Laboratories) in a laminar flow sterile hood. Sub-cutaneous pocket was carefully closed by applying 1 or 2 wound clips. All mice were monitored for 24 hours after implantation procedure for any apparent physiologic disturbances or missing wound clips. Olaparib (40 mg/Kg body weight) treatment was started after 72 hours. […] Body weight was also monitored weekly during the course of the study.

Data set [7] has as its system PC3. The data set can be described thus: Basement membrane matrix invasion assay, PC3 cells. Format: cell-based, human.
For data set [8], the system named is MDA-PCa-118b (ETS negative). Briefly: Human prostate cancer tissue xenograft (primagraft) MDA-PCa-118b. Format: in vivo, mice. The following applies: 40 mg/kg Olaparib. The procedure:
as §4
On the technique in general: A xenograft is tissue or cells of one species grown in another, often human tumour cells in immunodeficient mice.

For data set [9], the system named is MDA-PCa-133 (ERG positive). The data set can be described thus: Human prostate cancer tissue xenograft (primagraft) MDA-PCa-133. Format: in vivo, mice. Conditions: MDA-PCa-133, 40 mg/kg Olaparib; P=0.05 (Day 8), P<0.01 (day 16, 24 and 32). The method, then:
as §4

The subject of data set [10] is RWPE cells stably overexpressing ETV1. Briefly: Basement membrane matrix invasion assay, RWPE-ETV1 cells. Format: cell-based, human. The following applies: P<0.01 for all PARP1 or DNA-PKcs treatments. The method, then: For invasion assays, the prostate cell lines RWPE-1 and VCaP were transfected with siRNA or negative controls as indicated. NU7026 (Sigma) and NU1025 (Calbiochem) were dissolved in DMSO and stored at −20° C. in the dark. Forty-eight hours post-transfection/transduction, cells were seeded onto the basement membrane matrix (EC matrix, Chemicon, Temecula, Calif.) in the chamber insert with […] pores of a 24-well culture plate in serum free media. Cells were attracted to the lower chamber by the addition of complete media as a chemoattractant. After 48 hours incubation at 37° C. with 5% CO2, the non-invading cells and EC matrix were gently removed with a cotton swab. Invasive cells, which were located on the lower side of the membrane, were stained with crystal violet, air dried and photographed. To quantify the relative number of invaded cells, colorimetric assays were performed by treating the inserts with 150 μl of 10% acetic acid (v/v) and measuring absorbance of each condition at 560 nm using a spectrophotometer (GE Healthcare).

For data set [11], the system named is PC3-ERG cells. Briefly: Neutral COMET assay, ERG overexpressing PC3 cells versus controls. Format: cell-based, human.
Data set [12] is described as follows: Serum ALT and AST of PC3-ERG mice (liver toxicity). It is filed as in vivo.
The subject of data set [13] is PC3 model overexpressing T2:ERG. The data set can be described thus: γH2A.X foci after radiation (DNA double strand break repair), isogenic PC3 model. Conditions: PC3, pre-treated with 10 μM Olaparib, then radiation. It is filed as cell-based. The procedure: The effect of ETS overexpression on repair of DNA double strand breaks was assayed. Isogenic PC3 and DU145 models, respectively, overexpressing either T2:ERG or ERG with a deleted ETS domain were pre-treated with or without 10 μM Olaparib and then treated with radiation. Immunofluorescence staining of γH2A.X foci was used to assess total levels of DNA damage and repair rate. The number of cells with >10 γH2A.X foci were quantified at each time point as indicated. Representative photomicrographs were taken 24 hours after treatment using an Olympus confocal microscope with a 100× Oil objective. All experiments were run in triplicate. Error bars are standard error of the mean.

The test system of data set [14] is PC3 cells. The data set can be described thus: Colony formation after radiation, isogenic PC3 model overexpressing T2:ERG. The following applies: PC3, pre-treated with 10 μM Olaparib. It is filed as cell-based. The method, then:
as §2

“Also recorded” adds a separate entry of the source.

As to `O=C(c1cc(Cc2n[nH]c(=O)c3ccccc23)ccc1F)N1CCN(C(=O)C2CC2)CC1` [Olaparib, 4-[3-(4-Cyclopropanecarbonylpiperazine-1-carbonyl)-4-fluorobenzyl]-2H-phthalazin-1-one], the effect on tumors entry in data set [1] was “no measurable effect”. The “ERG induced radiation resistance (colony formation)” value in [2] and in data set [14] was “blocks ERG induced radiation resistance; also recorded: reversed by PARP inhibition” each time. For the same compound, the “tumor size (weight) on CAM” value in [3] is reported as “significantly smaller”. Moreover, the xenograft growth entry in data set [4] is listed as “did not significantly inhibit xenograft growth”. The “dose dependence of VCaP tumor growth response” value in [5] (Olaparib) was “dose dependent”. The “tumor growth relative to the vehicle control” value in data set [5] (VCaP, Olaparib 40 mg/kg/day IP (P=0.001), NU7026 25 mg/kg/day IP (p=0.004)) was “significant reduction of tumor growth”. In data set [6], the total body weight entry is given as “did not lead to a significant decrease in total body weight; also recorded: did not have an observable effect on total body weight; also recorded: does not reduce total mouse body weight”. Moreover, the “invasion of PC3 (ETS rearrangement negative control)” value in data set [7] is recorded as “does now effect invasion”. For the same compound, the primagraft growth result is given as “had no effect” in data set [8] and “inhibited the growth” in data set [9]. In data set [10], the ETV1-mediated invasion entry is reported as “does now effect invasion”. Besides, the “potentiated DNA damage (COMET), time course” value in data set [11] (PC3-ERG relative to PC3-LACZ, 0.5, 1, 24 and 48 hr exposure, as early as 30 min (p=0.002)) is recorded as “potentiated DNA damage was observed”. Besides, the “COMET tail moment increase, ERG positive cells versus controls” value in [11] (PC3 cells with and without Olaparib, P=0.03, two-way ANOVA) was “significantly greater increase in the tail moments”. Moreover, in [12], the “liver toxicity as assessed by serum levels of ALT and AST” value is “did not lead to liver toxicity”. In data set [13], the “ERG-enhanced DNA DSB damage repair (γH2A.X foci)” value is recorded as “blocked; also recorded: reversed by PARP inhibition”.
